Earlier results, collected in publication PMC7062412 (Drug Design, Development and Therapy, 2020).

Assays:
[1] = system: ET-1; settings: overall animals, isolated organs, cells and subcells

O=C(O)/C=C/c1ccc(O)c(O)c1 [Caffeic Acid, caffeic acid]
half-life in the body: 30 to 60 min
antagonistic biological effect on ET-1 [1]: had an antagonistic biological effect on ET-1
